{
  "source": "patent US8722629B2",
  "about": "“Auristatin derivatives and use thereof” (Seattle Genetics, Inc., priority 2010, dated 2014)",
  "key": {"[1]": {"test_system": "human renal cancer cell line 786-0", "test": "Antiproliferative effect on the 786-0 RCC cell line (MTT assay)", "type": "cell-based", "conditions": "incubation 48 h to 96 h", "description": "B-1. Determination of the Antiproliferative Effect on the 786-0 RCC Cell Line:\nA defined cell number of the human renal cancer cell line 786-0 was sown in a 96-well microtiter plate in complete medium (2500 or 7000 cells/well) and incubated at 37° C./5% CO2 overnight. After 18 h, the sowing medium was replaced by serum-free medium or medium with 2% FCS. Treatment was initiated by addition of the respective test substance in varying concentration (10^−5 M to […]). The chosen incubation times were from 48 h to 96 h. Proliferation was determined with the aid of the MTT assays (ATCC, Manassas, Va., USA, catalogue No. 30-1010K). After the incubation time, the MTT reagent was incubated with the cells for 4 h, and the cells were subsequently lysed by adding the detergent overnight. The dye formed was detected at 570 nm. […] The data obtained from this test are triple determinations, and at least two independent experiments were carried out."}, "[2]": {"test_system": "human colon carcinoma cell line HT29 wt (wild type)", "test": "Antiproliferative effect on the HT29 wt cell line (MTT assay)", "type": "cell-based", "conditions": "10% FCS, incubation 48 h to 96 h", "description": "B-2. Determination of the Antiproliferative Effect on the HT29 Wt Cell Line:\nA defined cell number of the human colon carcinoma cell line HT29 wt (wild type) was sown in a 96-well microtiter plate in complete medium (10% FCS-RPMI) (2500 cells/well) and incubated at 37° C./5% CO2 overnight. After 18 h, the sowing medium was replaced by fresh medium with 10% FCS. Treatment was initiated by addition of the respective test substance. From the substances to be investigated, dose/activity curves in a concentration range of from 10^−5 M to 10^−14 M (1:10-dilution series) were determined. The chosen incubation times were from 48 h to 96 h. Pro-liferation was determined with the aid of the MTT assays (ATCC, Manassas, Va., USA, catalogue No. 30-1010K). After the incubation time, the MTT reagent was incubated with the cells for 4 h, and the cells were subsequently lysed by adding the detergent overnight. The dye formed was detected at 570 nm. Proliferation of cells which had not been treated with test substance, but had otherwise been treated identically, was defined as 100%. The data obtained from this test are triple determinations, and at least two independent experiments were carried out."}, "[3]": {"test": "Plasma stability in vitro, rat plasma", "type": "in vitro ADME", "conditions": "male, Wistar, rat plasma (Li heparin), 37° C., Method A (HPLC)", "description": "B-4. Determination of the Plasma Stability in vitro:\n1 mg of the test substance in question was dissolved in 0.5 ml of acetonitrile/DMSO (9:1). From this solution, 20 μl were removed and added to 1 ml of rat or human plasma at 37° C. (plasma of male Wistar rats with Li heparin from Harlan & Winkelmann or fresh human leukocyte-depleted plasma originating from a whole blood sample). From this plasma solution, which was shaken vigorously, 100 μl aliquots were removed immediately after addition of the sample (initial value as reference) and then after 5, 10, 30, 60, 120, 180 and 240 minutes and optionally after 24 hours and added to 300 μl of acetonitrile. The precipitated plasma proteins were removed by centrifugation at 5000 rpm for 10 minutes, and 30 μl of the supernatant were analysed by HPLC for its content of unmodified test substance. Quantification was via the area percentages of the corresponding peaks.\nHPLC Method for Rat Plasma:\nInstrument: Agilent 1200 with DAD, binary pump, autosampler, column oven and thermostat; column: Kromasil 100 C18, 250 mm×4 mm, […]; column temperature: 45° C.; mobile phase A: 5 ml of perchloric acid/1 of water, mobile phase B: acetonitrile; gradient: 0-8 min 98% A, 2% B; 8-15 min 56% A, 44% B; […] 10% A, 90% B; 20-21 min 10% A, 90% B; […] 98% A, 2% B; […] 98% A, 2% B; flow rate: 2 ml/min; UV detection: 220 nm.\nThe test substance was incubated in rat or human plasma at 37° C. over a period of 5 h with gentle stirring. At different points in time (0, 2, 5, 10, 20, 30, 60, 120, 180 and 300 minutes), a 100 μl aliquot was removed. Following addition of internal standard (10 μl), the proteins were precipitated by addition of 200 μl of acetonitrile and the mixture was centrifuged in an Eppendorf centrifuge for 5 minutes. After addition of 150 μl of ammonium acetate buffer pH 3 to 150 μl of the supernatant, the content of unmodified test substance was analysed by LC/MSMS."}, "[4]": {"conditions": "Homo sapiens, 786-0, 786-0 cells"}, "[5]": {"conditions": "Homo sapiens, HT-29, HT29 wt cells"}},
  "note": "Where a name gives a salt, the structure may show the parent alone. Starred links: 1 amine or outer side, 2 acyl side, 3 side chain; linkers in the order of their positions; H or OH if unused. Non-standard residues stand in square brackets, D forms with d. Residues, ends and D or L forms follow the SMILES beside them. *: point of attachment. NMeVal(N-(CH2)3COOH) = CC(C)[C@@H](C(=O)*)N(C)CCCC(=O)O; Dolaproine = CO[C@@H]([C@@H]1CCCN1)[C@@H](C)C(=O)O; X4 = O=C([C@]1(N[*:1])C[C@H]1c1ccccc1)[*:2]; Dil = CC[C@H](C)[C@H](NC)[C@@H](CC(=O)O)OC; X7 = COC(=O)CCCN(C)[C@H](C(=O)*)C(C)C; αMeF = C[C@](N)(Cc1ccccc1)C(=O)O; X5 = CC(C)[C@@H](C(=O)*)N(C)CCO; Oxazinan2yl(1,2) = C1CCN(*)OC1; NMeV = CN[C@H](C(=O)O)C(C)C; X3 = c1ccc2c(c1)CON(*)C2; X6 = C1=CC2CCC1ON2*",
  "data": [
    {"smiles": "CC[C@H](C)[C@@H]([C@@H](CC(=O)N1CCC[C@H]1[C@H](OC)[C@@H](C)C(=O)N[C@@H](Cc1ccccc1)C(=O)N1Cc2ccccc2CO1)OC)N(C)C(=O)[C@@H](NC(=O)[C@@H](NC)C(C)C)C(C)C", "note": "[Example 8, N-Methyl-L-valyl-N-[(3R,4S,5S)-1-{(2S)-2-[(1R,2R)-3-{[(2S)-1-(1,4-dihydro-3H-2,3-benzoxazin-3-yl)-1-oxo-3-phenylpropan-2-yl]amino}-1-methoxy-2-methyl-3-oxopropyl]pyrrolidin-1-yl}-3-methoxy-5-methyl-1-oxoheptan-4-yl]-N-methyl-L-valinamide, trifluoroacetic acid salt] (H-[NMeV]V[Dil][Dolaproine]F-X3)", "values": [
      {"measurement": "IC50", "setting": "[1]; [4]", "result": 2.4, "unit": "nM"}
    ]},
    {"smiles": "CC[C@H](C)[C@@H]([C@@H](CC(=O)N1CCC[C@H]1[C@H](OC)[C@@H](C)C(=O)N[C@@H](Cc1ccccc1)C(=O)O)OC)N(C)C(=O)[C@@H](NC(=O)[C@@H](NC)C(C)C)C(C)C", "note": "[MMAF, Monomethylauristatin F, reference compound] (H-[NMeV]V[Dil][Dolaproine]F-OH)", "values": [
      {"measurement": "IC50", "setting": "[1]; 786-0 cells", "result": 260, "unit": "nM"},
      {"measurement": "IC50", "setting": "[2]; HT29 wt cells", "result": 10, "unit": "nM"}
    ]},
    {"smiles": "CC[C@H](C)[C@@H]([C@@H](CC(=O)N1CCC[C@H]1[C@H](OC)[C@@H](C)C(=O)N[C@@]1(C(=O)N2CCCCO2)C[C@@H]1c1ccccc1)OC)N(C)C(=O)[C@@H](NC(=O)[C@H](C(C)C)N(C)CCCCCC(=O)O)C(C)C", "note": "[Example 26, N-(5-Carboxypentyl)-N-methyl-L-valyl-N-[(3R,4S,5S)-3-methoxy-1-{(2S)-2-[(1R,2R)-1-methoxy-2-methyl-3-{[(1S,2R)-1-(1,2-oxazinan-2-ylcarbonyl)-2-phenylcyclopropyl]amino}-3-oxopropyl]-pyrrolidin-1-yl}-5-methyl-1-oxoheptan-4-yl]-N-methyl-L-valinamide]", "values": [
      {"measurement": "IC50", "setting": "[1]; [4]", "result": 18, "unit": "nM"}
    ]},
    {"smiles": "CC[C@H](C)[C@@H]([C@@H](CC(=O)N1CCC[C@H]1[C@H](OC)[C@@H](C)C(=O)N[C@@H](Cc1ccccc1)C(=O)N1OC2C=CC1CC2)OC)N(C)C(=O)[C@@H](NC(=O)[C@@H](NC)C(C)C)C(C)C", "note": "(stereo partly drawn) [Example 6, N-Methyl-L-valyl-N-[(3R,4S,5S)-3-methoxy-1-{(2S)-2-[(1R,2R)-1-methoxy-2-methyl-3-{[(2S)-1-(2-oxa-3-azabicyclo[2.2.2]oct-5-en-3-yl)-1-oxo-3-phenylpropan-2-yl]amino}-3-oxopropyl]pyrrolidin-1-yl}-5-methyl-1-oxoheptan-4-yl]-N-methyl-L-valinamide, trifluoroacetic acid salt] (H-[NMeV]V[Dil][Dolaproine]F-X6)", "values": [
      {"measurement": "IC50", "setting": "[1]; [4]", "result": 0.5, "unit": "nM"}
    ]},
    {"smiles": "CC[C@H](C)[C@@H]([C@@H](CC(=O)N1CCC[C@H]1[C@H](OC)[C@@H](C)C(=O)N[C@@H](Cc1ccccc1)C(=O)N1CCCCO1)OC)N(C)C(=O)[C@@H](NC(=O)[C@H](C(C)C)N(C)CCCC(=O)OC)C(C)C", "note": "[Example 29, N-(4-Methoxy-4-oxobutyl)-N-methyl-L-valyl-N-[(3R,4S,5S)-3-methoxy-1-{(2S)-2-[(1R,2R)-1-methoxy-2-methyl-3-{[(2S)-1-(1,2-oxazinan-2-yl)-1-oxo-3-phenylpropan-2-yl]amino}-3-oxopropyl]pyrrolidin-1-yl}-5-methyl-1-oxoheptan-4-yl]-N-methyl-L-valinamide] (X7-V[Dil][Dolaproine]F-{Oxazinan2yl(1,2)})", "values": [
      {"measurement": "IC50", "setting": "[2]; [5]", "result": 0.1, "unit": "nM"}
    ]},
    {"smiles": "CC[C@H](C)[C@@H]([C@@H](CC(=O)N1CCC[C@H]1[C@H](OC)[C@@H](C)C(=O)N[C@@H](Cc1c[nH]c2ccccc12)C(=O)N1CCCCO1)OC)N(C)C(=O)[C@@H](NC(=O)[C@@H](NC)C(C)C)C(C)C", "note": "[Example 9, N-Methyl-L-valyl-N-[(3R,4S,5S)-1-{(2S)-2-[(1R,2R)-3-{[(2S)-3-(1H-indol-3-yl)-1-(1,2-oxazinan-2-yl)-1-oxopropan-2-yl]amino}-1-methoxy-2-methyl-3-oxopropyl]pyrrolidin-1-yl}-3-methoxy-5-methyl-1-oxoheptan-4-yl]-N-methyl-L-valinamide, trifluoroacetic acid salt] (H-[NMeV]V[Dil][Dolaproine]W-{Oxazinan2yl(1,2)})", "values": [
      {"measurement": "IC50", "setting": "[1]; [4]", "result": 3, "unit": "nM"},
      {"measurement": "IC50", "setting": "[2]; [5]", "result": 1.4, "unit": "nM"}
    ]},
    {"smiles": "CC[C@H](C)[C@@H]([C@@H](CC(=O)N1CCC[C@H]1[C@H](OC)[C@@H](C)C(=O)N[C@@](C)(Cc1ccccc1)C(=O)N1CCCCO1)OC)N(C)C(=O)[C@@H](NC(=O)[C@@H](NC)C(C)C)C(C)C", "note": "[Example 22, N-Methyl-L-valyl-N-[(3R,4S,5S)-3-methoxy-1-{(2S)-2-[(1R,2R)-1-methoxy-2-methyl-3-{[(2S)-2-methyl-1-(1,2-oxazinan-2-yl)-1-oxo-3-phenylpropan-2-yl]amino}-3-oxopropyl]pyrrolidin-1-yl}-5-methyl-1-oxoheptan-4-yl]-N-methyl-L-valinamide, trifluoroacetic acid salt] (H-[NMeV]V[Dil][Dolaproine][αMeF]-{Oxazinan2yl(1,2)})", "values": [
      {"measurement": "half-life at 39.2 µg/ml", "setting": "[3]", "result": 2, "unit": "h"}
    ]},
    {"smiles": "CC[C@H](C)[C@@H]([C@@H](CC(=O)N1CCC[C@H]1[C@H](OC)[C@@H](C)C(=O)N[C@@]1(C(=O)N2CCCCO2)C[C@H]1c1ccccc1)OC)N(C)C(=O)[C@@H](NC(=O)[C@@H](NC)C(C)C)C(C)C", "note": "[Example 16, N-Methyl-L-valyl-N-[(3R,4S,5S)-3-methoxy-1-{(2S)-2-[(1R,2R)-1-methoxy-2-methyl-3-{[(1S,2S)-1-(1,2-oxazinan-2-ylcarbonyl)-2-phenylcyclopropyl]amino}-3-oxopropyl]pyrrolidin-1-yl}-5-methyl-1-oxoheptan-4-yl]-N-methyl-L-valinamide, trifluoroacetic acid salt] (H-[NMeV]V[Dil][Dolaproine][X4]-{Oxazinan2yl(1,2)})", "values": [
      {"measurement": "IC50", "setting": "[1]; [4]", "result": 8, "unit": "nM"},
      {"measurement": "half-life at 39.2 µg/ml", "setting": "[3]", "result": 0.75, "unit": "h"}
    ]},
    {"smiles": "CC[C@H](C)[C@@H]([C@@H](CC(=O)N1CCC[C@H]1[C@H](OC)[C@@H](C)C(=O)N[C@@H](Cc1ccccc1)C(=O)N1CCCCO1)OC)N(C)C(=O)[C@@H](NC(=O)[C@H](C(C)C)N(C)CCO)C(C)C", "note": "[Example 2, N-(2-Hydroxyethyl)-N-methyl-L-valyl-N-[(3R,4S,5S)-3-methoxy-1-{(2S)-2-[(1R,2R)-1-methoxy-2-methyl-3-{[(2S)-1-(1,2-oxazinan-2-yl)-1-oxo-3-phenylpropan-2-yl]amino}-3-oxopropyl]pyrrolidin-1-yl}-5-methyl-1-oxoheptan-4-yl]-N-methyl-L-valinamide] (X5-V[Dil][Dolaproine]F-{Oxazinan2yl(1,2)})", "values": [
      {"measurement": "IC50", "setting": "[2]; [5]", "result": 0.5, "unit": "nM"}
    ]},
    {"smiles": "CC[C@H](C)[C@@H]([C@@H](CC(=O)N1CCC[C@H]1[C@H](OC)[C@@H](C)C(=O)N[C@@H](Cc1ccccc1)C(=O)N1CCCCO1)OC)N(C)C(=O)[C@@H](NC(=O)[C@H](C(C)C)N(C)CCCC(=O)O)C(C)C", "note": "[Example 24, N-(3-Carboxypropyl)-N-methyl-L-valyl-N-[(3R,4S,5S)-3-methoxy-1-{(2S)-2-[(1R,2R)-1-methoxy-2-methyl-3-{[(2S)-1-(1,2-oxazinan-2-yl)-1-oxo-3-phenylpropan-2-yl]amino}-3-oxopropyl]-pyrrolidin-1-yl}-5-methyl-1-oxoheptan-4-yl]-N-methyl-L-valinamide] ({NMeVal(N-(CH2)3COOH)}-V[Dil][Dolaproine]F-{Oxazinan2yl(1,2)})", "values": [
      {"measurement": "IC50", "setting": "[1]; [4]", "result": 5, "unit": "nM"},
      {"measurement": "IC50", "setting": "[2]; [5]", "result": 1.5, "unit": "nM"}
    ]}
  ]
}
